Test: Flavorist panel evaluation of aged artificially sweetened beverage with added chlorogenic acid
Assay type: in vivo
Conditions: final concentration 0.003% w/v; compared to untreated beverage; six member panel of trained flavorists
Protocol: An artificially sweetened beverage is prepared by mixing 1.4 g aspartame, 0.9 g acesulfame K, 6 ml sodium benzoate (25%^w/v in water), 1.3 ml phosphoric acid (85%^w/v), and 0.5 ml citric acid (50%^w/v in water). The volume of the mixture is adjusted to 1000 ml with water. The beverage mixture is aged for three weeks at 34° C.
A 2.8%^w/w solution of a commercially available synthetic chlorogenic acid (>95% pure (1,3,4,5-tetrahydroxy-cyclohexanecarboxylic acid 3-[3,4-dihydroxycinnamate]), Sigma Chemical Co., St. Louis, Mo.), in water, pH 5.6, is added to a portion of the aged beverage to a final concentration of 0.003%^w/v. The beverage containing chlorogenic acid is evaluated and compared to the untreated beverage by a six member panel of trained flavorists. The beverage containing the commercial chlorogenic acid is judged by the panel to display markedly less of the metallic, slightly bitter aftertaste found in the aged artificially sweetened beverage.
To another portion of the artificially sweetened beverage prepared as described in the first paragraph of Example 6, an aqueous solution of chlorogenic acid from the powdered extract of green coffee beans is added to a final concentration of 0.003%^w/v chlorogenic acid. This beverage is evaluated by the same flavorist panel as described in Example 6. […]

O=C(C=Cc1ccc(O)c(O)c1)OC1CC(O)(C(=O)O)CC(O)C1O (stereo not shown) [synthetic chlorogenic acid, 1,3,4,5-tetrahydroxy-cyclohexanecarboxylic acid 3-[3,4-dihydroxycinnamate]]
metallic, slightly bitter aftertaste found in the aged artificially sweetened beverage: markedly less

— patent publication US10597620B2, “Taste modifiers comprising a chlorogenic acid” (GIVAUDAN SA, priority 2001, dated 2020)
